The values that follow come from the Deep4Chem optical property database.

This data set is described as follows: solvent given as SMILES.

SMILES strings stand for the structures. Where “and” joins values, the source holds several entries; their conditions need not be identical. Equal entries are not always repeated.

Under “in ClCCl”, `c1ccc(C2=C(c3ccccn3)[Si](c3ccccc3)(c3ccccc3)c3ccccc32)cc1` displayed an emission maximum of 406 nm.

Molecule `Nc1ccc2ccc3cccc4ccc1c2c34` displayed an emission maximum (in CC#N) of 425 nm, an emission maximum (in CCCCOCCCC) of 417 nm and an emission maximum (in CO) of 428 nm.

On to `CCC1(CC)c2ccccc2-c2c1c1c(c3c2C(CC)(CC)c2cc(B(c4c(C)cc(C)cc4C)c4c(C)cc(C)cc4C)ccc2-3)C(CC)(CC)c2cc(B(c3c(C)cc(C)cc3C)c3c(C)cc(C)cc3C)ccc2-1`, for which the emission maximum was 387 nm (in C1CCOC1); 398 nm (in CC#N); 394 nm (in CC(C)=O); 378 nm (in CCCCCC); 387 nm (in ClC(Cl)Cl).

Consider `CCCCCCCCC1(CCCCCCCC)c2cc(-c3ccc([Si](C)(C)C)cc3)ccc2-c2ccc(-c3ccc([Si](C)(C)C)cc3)cc21`, for which, for the setting “in ClC(Cl)Cl”, the emission maximum was determined as 368 nm.

Turning to `O=c1c2ccccc2[nH]c2ccccc12`, the emission maximum worked out at 408 nm (in CS(C)=O) and 416 nm (in O).

As for `[NH3+]C(Cc1ccc(O)cc1)C(=O)[O-]` (configuration not stated), the emission maximum (in O) turned out to be 304 nm.

`CCOC(=O)c1cc(C(=O)OCC)c2cc(NC)ccc2n1`: the emission maximum (in CCO) amounted to 539 nm.

Take `c1ccc(-c2c3c(c(-c4ccccc4)c4c2-c2ccccc2C4)-c2ccccc2C3)cc1`: the emission maximum (in C1CCCCC1) is on record as 375 nm.

For `CC1=[N+]2C(=C(/C=C/c3ccc(C(F)(F)F)cc3)c3ccc(C)n3[B-]2(F)F)C=C1c1cc2n(c1)[B-](F)(F)[N+]1=CC=CC1=C2c1c(C)cc(C)cc1C`, the emission maximum was found to be 704 nm (in C1CCCCC1) and 710 nm (in CCOC(C)=O).

`CCN(CC)c1ccc2c(c1)oc(=O)c1cc3cnn(-c4ccccc4)c3nc12` displayed an emission maximum (in ClCCl) of 501 nm.

For `Cc1cc(C)c(B(c2c(C)cc(C)cc2C)N2c3ccccc3C(c3ccccc3)(c3ccccc3)c3ccccc32)c(C)c1`, the emission maximum by setting is: (in C1CCCCC1) 522 nm; (in Cc1ccccc1) 537 nm; (in ClCCl) 558 nm.

Turning to `Cc1nc2cccc(-c3nc4ccc([N+](=O)[O-])cc4[nH]3)c2c(=O)[nH]1`, where the note is “in CN(C)C=O”, the emission maximum came to 450 nm.

`C(=C\c1cccc2ccccc12)/c1ccc(-c2nnc(-c3ccc(-c4cc5ccccc5s4)cc3)o2)cc1` gave an emission maximum (in CC#N) of 441 nm; an emission maximum (in CC(C)=O) of 437 nm; an emission maximum (in CCCCCCCC) of 426 nm; an emission maximum (in CCCCCCCCCCO) of 437 nm; an emission maximum (in CCCCCCCCO) of 436 nm; an emission maximum (in CCCCCO) of 438 nm. Moreover, the emission maximum is listed as 441 nm (in CCCO), 447 nm (in CN(C)C=O), 448 nm (in CO) and 455 nm (in CS(C)=O).

On to `c1ccc2cc3ccccc3cc2c1`, for which the emission maximum by setting is: (in C1CCCCC1) 400 nm and 407.66 nm; (in C1CCOC1) 397 nm; (in CO) 400 nm.

In turn, `F[B-]1(F)n2c(c(-c3ccccc3)c(-c3ccccc3)c2-c2ccccc2)C=C2C(c3ccccc3)=C(c3ccccc3)C(c3ccccc3)=[N+]21` showed an emission maximum (in C1CCOC1) of 608 nm.

Molecule `CCOC(=O)CSc1nc(C)c(CC)c(C#N)c1C#N` had an emission maximum (in c1ccccc1) of 407 nm.

Turning to `C#CCn1c2ccccc2c2cc(/C=C/c3cc(C)c4n3[B-](F)(F)[N+]3=C(C)C=C(C)C3=C4c3ccc(I)cc3)ccc21`, the emission maximum is, setting by setting: (in CC#N) 605 nm; (in CS(C)=O) 614 nm; (in ClC(Cl)Cl) 607 nm.

Take `CC1(C)c2ccccc2N(c2cc3c4ccccc4n4c5ccccc5c(c2)c34)c2ccccc21`: the emission maximum is, setting by setting: (in C1CCCCC1) 416.92 nm; (in C1CCOC1) 470.91 nm; (in Cc1ccccc1) 439 nm.

The molecule `Cc1ccc(Nc2ccc(Nc3ccc(C)cc3)c3c2C(=O)c2ccccc2C3=O)cc1` had an emission maximum (in C1CCCCC1) of 680 nm; an emission maximum (in C1COCCO1) of 684 nm; an emission maximum (in CC(C)=O) of 684 nm; an emission maximum (in CCCCCCCCCCO) of 682 nm; an emission maximum (in CCCCCCCO) of 684 nm; an emission maximum (in CCCCCCO) of 682 nm. Moreover, the emission maximum is listed as 683 nm (in CCCCO); 684 nm (in CCO); 686 nm (in CN(C)C=O); 682 nm (in CO); 689 nm (in CS(C)=O); 685 nm (in ClC(Cl)(Cl)Cl). For the same molecule, the emission maximum (in c1ccccc1) is recorded as 684 nm.

With `CCCN1/C(=C/C=C(/C=C/C2=[N+](CCC)c3ccccc3C2(C)C)c2ccc([N+](=O)[O-])cc2)C(C)(C)c2ccccc21`, the emission maximum reads like this: (in CO) 656 nm; (in CS(C)=O) 664 nm; (in O) 663 nm.

Turning to `F[B-]1(F)n2cccc2C(c2ccccc2)=C2C=CC(c3cccc(OC4=[N+]5C(=C(c6ccccc6)c6cc(Br)c(-c7ccc[nH]7)n6[B-]5(F)F)C=C4Br)c3)=[N+]21`, the emission maximum (in ClC(Cl)Cl) came out at 644 nm.

As for `O=c1oc2cccc3c4cccc5ccc6c7cc(F)ccc7c1c(c23)c6c54`, for the setting “in C1CCOC1”, the emission maximum was found to be 424 nm.

Take `O=P(c1ccccc1)(c1ccccc1)n1c2ccccc2c2cc(-n3c4ccccc4c4cc(-n5c6ccccc6c6cc(-n7c8ccccc8c8ccccc87)ccc65)ccc43)ccc21`: the emission maximum turned out to be 378 nm (in C1CCOC1), 382 nm (in CC(C)=O), 376 nm (in Cc1ccccc1) and 383 nm (in ClCCl).

On to `CN(C)c1ccc(-c2cc3c(s2)c(C(=O)c2ccccc2)cc(=O)n3Cc2ccccc2)cc1`, for which the emission maximum is, setting by setting: (in CC#N) 521 nm; (in ClCCl) 678 nm.

Regarding `Cc1ccc(N(c2ccc(C)cc2)c2ccc(-c3cc4c(cc(-c5ccc(N(c6ccc(C)cc6)c6ccc(C)cc6)cc5)c5nsnc54)c4nsnc34)cc2)cc1`, the emission maximum runs as follows: (in Cc1ccccc1) 659 nm; (in ClCCl) 683 nm.

In the case of `C1=C(c2ccccc2)C=C(c2ccccc2)/C1=C/C1CCCCC1`, for the setting “in C1CCOC1”, the emission maximum stood at 420 nm.

For the setting “in ClC(Cl)Cl”, `CCCCCCCCOc1ccc(-c2c3c4n(c(-c5ccc(OCCCCCCCC)cc5)c3c3n2[B-](F)(F)[n+]2ccccc2N=3)[B-](F)(F)[n+]2ccccc2N=4)cc1` yielded an emission maximum of 661 nm.

`C(#Cc1ccccc1)C(C#Cc1ccccc1)=Cc1ccc(C=C(C#Cc2ccccc2)C#Cc2ccccc2)cc1`: the emission maximum (in ClC(Cl)Cl) was 475 nm.

In the case of `CSc1nccc(/C=C/c2ccc(N(c3ccccc3)c3ccc(/C=C/c4ccnc(SC)n4)cc3)cc2)n1`, for the setting “in ClCCl”, the emission maximum came out at 540 nm.

As for `N#Cc1cc(-n2c3ccccc3c3ccccc32)c(C#N)cc1-n1c2ccccc2c2ccccc21`, the emission maximum stood at 370 nm (in c1cc(-c2cccc(-n3c4ccccc4c4ccccc43)c2)cc(-n2c3ccccc3c3ccccc32)c1) and 370 nm (in c1ccc2c(c1)c1ccccc1n2P1(n2c3ccccc3c3ccccc32)=NP(n2c3ccccc3c3ccccc32)(n2c3ccccc3c3ccccc32)=NP(n2c3ccccc3c3ccccc32)(n2c3ccccc3c3ccccc32)=N1).

Under “in ClCCl”, `CC[B-]1(CC)c2cccc3c4c5c(cccc5c(c23)-c2cccc(C)[n+]21)[B-](CC)(CC)[n+]1c(C)cccc1-4` had an emission maximum of 620 nm.

For the molecule `COCCOCCOCCOc1ccc(/C=C/C2=[N+]3C(=C(c4cc(OC)cc(OC)c4)c4c(C)c(I)c(/C=C/c5ccc(OCCOCCOCCOC)cc5)n4[B-]3(F)F)C(C)=C2I)cc1`, the emission maximum runs as follows: (in C1CCOC1) 684 nm; (in CS(C)=O) 695 nm; (in ClCCl) 687 nm.

Turning to `CCC1(CC)c2cc(-c3ccc(N(c4ccc(-c5ccc6c(c5)C(CC)(CC)c5cc(N7c8ccccc8C(C)(C)c8ccccc87)ccc5-6)cc4)c4ccc(-c5ccc6c(c5)C(CC)(CC)c5cc(N7c8ccccc8C(C)(C)c8ccccc87)ccc5-6)cc4)cc3)ccc2-c2ccc(N3c4ccccc4C(C)(C)c4ccccc43)cc21`, the emission maximum (in ClC(Cl)Cl) was found to be 431 nm.

With `COc1ccc(-c2cc(-c3ccc(OC)cc3)c3c(N)nc(N4CCCC4)c(C#N)c3n2)cc1`, the emission maximum amounted to 516 nm (in CC#N); 513 nm (in CC(C)=O); 507 nm (in CC(C)O); 515 nm (in CO); 500 nm (in ClC(Cl)Cl); 506 nm (in ClCCl). The emission maximum (in c1ccccc1) was determined as 502 nm.

`Clc1ncc(-c2c3ccccc3c(-c3cnc(Cl)nc3)c3ccccc23)cn1`: the emission maximum reads like this: (in CCO) 428 nm; (in ClCCl) 421 nm.

On to `COc1c2ccccc2c(OC)c2c1c1ccc(F)cc1n2C`, for which the emission maximum by setting is: (in C1CCCCC1) 404 nm; (in CC#N) 413 nm; (in CO) 410 nm; (in ClCCl) 411 nm.

`c1cc(-c2ccc3c(c2)CCCO3)ccc1-c1ccc2c(c1)CCCO2`: the emission maximum (in C1CCCCC1) was 351 nm.

Regarding `CC1(C)c2ccccc2N(c2ccc(-c3nc(-c4ccccn4)n(-c4ccc(N5c6ccccc6C(C)(C)c6ccccc65)cc4)n3)cc2)c2ccccc21`, the emission maximum (in ClCCl) came out at 445 nm.

With `c1ccc(N(c2ccccc2)c2ccc3ccc4c(N(c5ccccc5)c5ccccc5)ccc5ccc2c3c54)cc1`, the emission maximum reads like this: (in Cc1ccccc1) 458 nm; (in ClCCl) 472 nm.

Regarding `CN(c1ccccc1)c1ccc(N(c2ccccc2)c2ccc3ccc4c(N(c5ccccc5)c5ccc(N(C)c6ccccc6)cc5)ccc5ccc2c3c54)cc1`, where the note is “in ClCCl”, the emission maximum is recorded as 620 nm.

`COC(=O)/C(C#N)=c1\s/c(=c2/s/c(=C(/C#N)C(=O)OC)c3cc(-c4ccccc4)sc23)c2sc(-c3ccccc3)cc12` came in with an emission maximum (in Cc1ccccc1) of 640 nm.

As for `CN(C)c1ccc(C2=CC3=C(c4ccc(C=C(C#N)C#N)cc4)[C@H]4c5ccccc5[C@]3(S2)c2ccccc24)cc1`, where the note is “in ClCCl”, the emission maximum was found to be 735 nm.

As for `COc1ccc2c(c1)-c1cc3c(cc1[Si]2(c1ccccc1)c1ccccc1)-c1ccccc1[Si]3(c1ccccc1)c1ccccc1`, the emission maximum (in ClCCl) is recorded as 397 nm.

Molecule `N#Cc1ccc(-n2c(-c3ccc(-c4ccc(-n5c6ccccc6c6ccccc65)cc4)s3)nc3c4ccccc4c4ccccc4c32)c2ccccc12` yielded an emission maximum (in ClCCl) of 400 nm.
